Experimental data as given in ChEMBL document CHEMBL1152971, “Cycloartane triterpenoids from Kleinhovia hospita” (J Nat Prod, 2009).

Test system: HepG2
Test: Hepatoprotective activity against nitrofurantoin-induced cytotoxicity in human HepG2 cells after 2 hrs by MTT assay
Assay type: functional, cell-based
Conditions: HepG2, 2 h

SMILES | EC50 [µM]
CO[C@H]1O[C@]2(C=C(C)C(=O)O2)C[C@@H]1[C@H]1CC[C@@]2(C)[C@@H]3CC[C@H]4C(C)(C)C(=O)C=C[C@@]45C[C@@]35CC[C@]12C | 123
CC(C)=CC(=O)C[C@@H](C)[C@H]1CC[C@@]2(C)[C@@H]3CC[C@H]4C(C)(C)C(=O)C=C[C@@]45C[C@@]35CC[C@]12C | 109
CC(C)=CC(=O)C[C@@H](C)[C@H]1CC[C@@]2(C)[C@@H]3CC[C@H]4[C@](C)(C(=O)O)[C@@H](O)C[C@H](O)[C@@]45C[C@@]35CC[C@]12C [GARDENOLIC ACID B] | 66.4
COc1cc(C2Oc3cc([C@H]4Oc5cc(O)cc(O)c5C(=O)[C@@H]4O)ccc3OC2CO)ccc1O (some centres undefined) [SILIBININ] | 75.7
